Like-named read-outs stand apart in the source and are kept apart here.
Key:
[1] = tested on: pre-miR-21; assay: cat-ELCCA for Dicer-mediated pre-miRNA maturation; format: biochemical; settings: for hit in HTS for inhibition of Dicer-mediated pre-miR-21 maturation: primary and confirmation screens at 25 µM, CRCs from 3.3 to 120 µM
[2] = tested on: pre-miR-21; settings: previously shown; cited from earlier work

Row | Structure (SMILES) | hit in HTS for inhibition of Dicer-mediated pre-miR-21 maturation [1] | also measured
1 | NC[C@H]1O[C@H](O[C@H]2[C@H](O)[C@@H](O[C@H]3O[C@H](CO)[C@@H](O)[C@H](N)[C@H]3O)[C@H](N)C[C@@H]2N)[C@H](O)[C@@H](O)[C@@H]1O [kanamycin] | – | inhibition of Dicer-mediated pre-miR-21 maturation ([1]; data not shown): do not inhibit
2 | C=C1c2c(Cl)ccc(O)c2C(=O)C2=C(O)[C@]3(O)C(=O)C(C(N)=O)=C(O)[C@@H](N(C)C)[C@@H]3[C@@H](O)[C@H]12 [meclocycline] | emerged as hits | –
3 | C=C1c2cccc(O)c2C(=O)C2=C(O)[C@]3(O)C(=O)C(C(N)=O)=C(O)[C@@H](N(C)C)[C@@H]3[C@@H](O)[C@H]12 [methacycline] | emerged as hits | –
4 | CN(C)c1ccc(O)c2c1C[C@H]1C[C@H]3[C@H](N(C)C)C(O)=C(C(N)=O)C(=O)[C@@]3(O)C(O)=C1C2=O [minocycline] | emerged as hits | –
5 | [H]/N=C(/N)N[C@H]1[C@H](O)[C@@H](O)[C@H](O[C@@H]2O[C@@H](C)[C@](O)(C=O)[C@H]2O[C@@H]2O[C@@H](CO)[C@H](O)[C@@H](O)[C@@H]2NC)[C@@H](N/C(N)=N\[H])[C@@H]1O [streptomycin] | – | inhibition of Dicer-mediated pre-miR-21 maturation [2]: do not inhibit
